Literature values as cited in patent publication US20260183325A1, “SUSTAINED OR IMMEDIATE RELEASE ENERGY, MENTAL FOCUS, AND PHYSICAL RECOVERY NUTRITIONAL SUPPLEMENT BLEND, DIETARY SUPPLEMENT, FUNCTIONAL FOOD AND FUNCTIONAL BEVERAGE” (Matchstick Brands, LLC, priority 2023, published 2026).

Settings: during working memory processes (Koppelstatter et al. 2008)

## Cn1c(=O)c2c(ncn2C)n(C)c1=O [caffeine]
  fMRI signal changes in a network of brain areas associated with executive and attentional functions: increases
